These results are taken from patent US10905654B2, “Compositions of bakuchiol and methods of making the same” (Unigen, Inc., priority 2005, dated 2021).

The logP is a log measure of how a compound divides between an organic and an aqueous phase. High values mean higher lipophilicity, low ones lower lipophilicity. For orientation: pIC50 means the negative decadic logarithm of the IC50, by convention in mol/L.

pIC50: −log10 of the molar value.

Data set [1] concerns Epidermophyton floccosum (ATCC 18397). The experiment in a line: Antimicrobial activity. Format: cell-based. As to conditions: 99% pure sample, tested at 0.03-100 μg/mL.
Data set [2] can be described thus: physchem.
The subject of data set [3] is Microsporum canis (ATCC 36299). The experiment in a line: Antimicrobial activity. The format is cell-based. The note with it: 99% pure sample, tested at 0.03-100 μg/mL.
In data set [4] the target is T1, PTPIB (Homo sapiens, UniProt P18031).
T1 sequence (P18031 1-435): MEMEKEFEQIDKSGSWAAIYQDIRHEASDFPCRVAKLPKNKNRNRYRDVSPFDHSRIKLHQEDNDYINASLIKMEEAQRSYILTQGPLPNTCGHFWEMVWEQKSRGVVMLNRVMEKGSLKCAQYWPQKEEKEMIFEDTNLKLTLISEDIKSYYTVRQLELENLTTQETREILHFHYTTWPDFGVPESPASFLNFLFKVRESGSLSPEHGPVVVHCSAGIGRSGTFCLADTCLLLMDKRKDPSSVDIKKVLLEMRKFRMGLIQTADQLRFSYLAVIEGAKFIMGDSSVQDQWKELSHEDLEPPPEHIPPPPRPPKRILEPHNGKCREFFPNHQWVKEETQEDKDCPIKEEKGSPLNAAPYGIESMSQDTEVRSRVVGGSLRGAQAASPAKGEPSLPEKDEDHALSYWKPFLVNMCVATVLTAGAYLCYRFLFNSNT
As to conditions: Kim et al. 2005; cited from earlier work.

In data set [5] the test system is Pityrosporum ovale (ATCC 38593). Briefly: Antimicrobial activity. The note with it: 99% pure sample, tested at 0.03-100 μg/mL. The format is cell-based.
For data set [6], the system named is Trichophyton mentagrophytes (ATCC 9533). Briefly: Antimicrobial activity. Format: cell-based. The note with it: 99% pure sample; tested at 0.03-100 μg/mL.
Data set [7] has as its target COX-1 (Homo sapiens, UniProt P23219). Briefly: COX-1 inhibition, peroxidase activity assay. The format is biochemical. The note with it: 99% bakuchiol sample, IC50 normalized to enzyme units. An excerpt:
In order to screen for compounds that inhibited COX-1 and COX-2 activity, a high throughput, in vitro assay was developed that utilized the inhibition of the peroxidase activity of both enzymes. (Needleman et al. (1986) Annu Rev Biochem. 55:69). Briefly, the composition or compound being examined was titrated against a fixed amount of COX-1 and COX-2 enzymes. A cleavable, peroxide chromophore was included in the assay to visualize the peroxidase activity of each enzyme in presence of arachidonic acid as a cofactor. Typically, assays were performed in a 96-well format. Each inhibitor, taken from a 10 mg/mL stock solution in 100% DMSO, was tested in triplicate at room temperature using the following range of concentrations: 0, 0.1, 1, 5, 10, 20, 50, 100, and 500 μg/mL. To each well, 150 μL of 100 mM Tris-HCl, pH 7.5 was added along with 10 μL of 22 μM Hematin diluted in tris buffer, 10 μL of inhibitor diluted in DMSO and 25 units of either the COX-1 or COX-2 enzyme. […] The plate was shaken for 10 seconds and then incubated 5 minutes before reading the absorbance at 570 nm. The inhibitor concentration vs. % inhibition was plotted and the IC50 determined by taking the half-maximal point along the isotherm and intersecting the concentration on the X-axis. […]

The target in data set [8] is T2, human 5-lipoxygenase (5-LO or 5-LOX) (Homo sapiens, UniProt P09917).
T2 construct: 5-LOX was isolated from human PBML cells; endogenous in cells; host or cells: human PBML cells (peripheral blood mononuclear leukocytes)
T2 sequence (P09917 1-674): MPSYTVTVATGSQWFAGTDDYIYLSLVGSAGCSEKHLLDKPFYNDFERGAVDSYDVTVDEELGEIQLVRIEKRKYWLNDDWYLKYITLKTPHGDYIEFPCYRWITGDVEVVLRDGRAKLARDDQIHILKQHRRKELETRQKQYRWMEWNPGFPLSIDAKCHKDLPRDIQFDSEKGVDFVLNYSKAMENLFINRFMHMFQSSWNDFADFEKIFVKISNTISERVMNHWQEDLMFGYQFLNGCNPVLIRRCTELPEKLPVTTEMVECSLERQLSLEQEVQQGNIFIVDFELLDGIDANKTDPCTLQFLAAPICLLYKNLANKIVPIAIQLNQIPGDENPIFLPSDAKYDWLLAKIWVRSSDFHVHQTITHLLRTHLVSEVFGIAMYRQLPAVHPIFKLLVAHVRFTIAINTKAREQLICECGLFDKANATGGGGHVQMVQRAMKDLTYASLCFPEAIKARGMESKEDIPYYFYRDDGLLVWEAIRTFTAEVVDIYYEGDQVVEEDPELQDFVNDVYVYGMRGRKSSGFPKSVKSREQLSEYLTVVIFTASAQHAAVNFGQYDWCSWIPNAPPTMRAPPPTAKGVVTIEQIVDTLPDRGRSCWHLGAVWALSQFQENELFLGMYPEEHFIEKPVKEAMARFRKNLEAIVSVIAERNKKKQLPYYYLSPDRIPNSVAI
The experiment in a line: Lipoxygenase Inhibition Assay (LTB4 formation, EIA). Format: biochemical. As to conditions: 99% bakuchiol; 5-LOX from human PBML cells, arachidonic acid substrate. On the procedure:
As noted above, one of the most important pathways involved in the inflammatory response is produced by non-heme, iron-containing lipoxygenases (5-LOX, 12-LOX, and 15-LOX), which catalyze the oxidation of fatty acids such as AA to produce the hydroperoxides 5-, 12- and 15-HPETE, which are then converted to leukotrienes. A Lipoxygenase Inhibition Assay was carried out using a published method (Carter et al. (1991) J. Pharmacol. Exp. Ther. 256(3):929-937, Safayhi et al. (2000) Planta Medica. 66:110-113). 5-LOX was isolated from human PBML cells and arachidonic acid was utilized as a substrate. The test article and positive control were dissolved in 1% DMSO. HBSS (Hank's balanced salt solution) was used as incubation buffer. Pre-incubation time was 15 minutes at 37° C., followed by 15 min. incubation at the same temperature. This assay detects the formation of LTB4 with EIA quantification. Highly pure bakuchiol (99% bakuchiol, #MH-258-12-08) was tested in duplicate at concentrations of 10 μM, 1 μM, 0.1 μM, and 10 nM relative to a positive control-NDGA at five concentrations. The dose response curve is illustrated in the FIG. 6.

Data set [9] is described as follows: Acute toxicity, 14-day study in mice. The format is in vivo, female ICR mice. As for the experimental part:
[…] Forty female ICR mice (Harlan) aged 4-5 weeks old were used for the 14-day study. Mice were administered […] of the acute dose daily, approximately 2 g/kg by weight per test article per day. The first 10 mice received the composition containing 20.7% bakuchiol, while the second group of 10 mice received a composition containing 99% bakuchiol. The UP256 composition was suspended in water and administered through a syringe. Twenty mice were administered water, as the control group. The weights of all mice were measured, including baseline, 3 mid points, and an endpoint. […] Any abnormal health conditions or behavior was recorded over the two-week period. A necropsy of all mice was completed on day 14 and blood from all groups was collected for a complete blood screen. Two mice picked randomly from each of groups also had kidney and liver tissues removed for Histopathology. All blood work and pathology work was completed through Antech Diagnostics.

Data set [10] deals with Propionibacterium acnes (ATCC 6919). The experiment in a line: Antimicrobial activity, turbidity. The format is cell-based. The note with it: 99% pure sample, tested at 0.03-100 μg/mL, 1 day. As for the experimental part:
(§1) The anti-microbial activity of a highly pure bakuchiol sample (99% pure; #MH-258-12-08) was evaluated using published methods (Modugno et al. (1994) Antimicrobial Agents & Chemotherapy 38:2362-2368; Misiek et al. (1973) Antimicrobial Agents & Chemotherapy 3:40-48). Briefly, Staphylococcus epidermidis (Gram Positive. ATCC 12228) was cultured for 20 hours at 37° C. in Mueller-Hinton Broth medium. Propionibacterium acnes (ATCC 6919) was cultured for 2 days at 37° C. in Reinforced Clostridial medium. The test article and positive control were dissolved in 1% DMSO with an incubation volume of 1 mL. The time of assessment was 1 day. Measurement of turbidity was used as the method of quantification. A highly pure bakuchiol sample (99%; #MH-258-12-08) was tested in duplicate at concentrations of 100 μg/mL, 30 μg/mL, 10 μg/mL, 3 μg/mL, 1 μg/mL, 0.3 μg/mL, 0.1 μg/mL and 0.03 μg/mL relative to positive controls-gentamicin at 0.1 μg/mL for Staphylococcus epidermidis and ampicillin at 0.1 μg/mL for Propionibacterium acnes, respectively.

Data set [11] concerns Staphylococcus epidermidis (Gram Positive, ATCC 12228). The experiment in a line: Antimicrobial activity, turbidity. Format: cell-based. The note with it: 99% pure sample, tested at 0.03-100 μg/mL, 1 day. On the procedure: as §1
Data set [12] relates to COX-1 versus COX-2. As to conditions: COX-1 selective inhibitor; cited from earlier work.
Setting [13] is: 20.7% and 99% bakuchiol samples, approximately 2 g/kg per day, 14 days.
The mark [14] stands for this setting: UP256 at concentrations of 30% and 70%, oral daily 2 g/kg for 14 days.
The mark [15] stands for this setting: day 14, 20.7% and 99% bakuchiol samples, approximately 2 g/kg per day.
[16] abbreviates: two mice per group, approximately 2 g/kg per day, 14 days.

Sequence of COX-1 (P23219 24-599): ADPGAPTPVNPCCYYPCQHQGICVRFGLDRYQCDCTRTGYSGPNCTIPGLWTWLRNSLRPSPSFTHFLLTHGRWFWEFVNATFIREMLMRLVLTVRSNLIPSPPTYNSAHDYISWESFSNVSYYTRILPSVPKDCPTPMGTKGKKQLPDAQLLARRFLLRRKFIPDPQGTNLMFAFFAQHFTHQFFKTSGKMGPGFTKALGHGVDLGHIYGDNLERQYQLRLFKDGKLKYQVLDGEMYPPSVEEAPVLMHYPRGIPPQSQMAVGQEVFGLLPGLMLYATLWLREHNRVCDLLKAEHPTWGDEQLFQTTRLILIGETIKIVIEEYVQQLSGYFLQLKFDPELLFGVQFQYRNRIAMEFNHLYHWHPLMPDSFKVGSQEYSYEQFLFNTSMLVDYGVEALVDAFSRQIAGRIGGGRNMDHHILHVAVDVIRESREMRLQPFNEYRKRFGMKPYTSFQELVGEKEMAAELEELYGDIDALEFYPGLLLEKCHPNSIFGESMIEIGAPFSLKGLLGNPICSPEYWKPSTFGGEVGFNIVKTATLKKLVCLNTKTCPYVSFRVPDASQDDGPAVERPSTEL

For the molecule `C=C[C@@](C)(/C=C/c1ccc(O)cc1)CCC=C(C)C` [UP256, bakuchiol], the inhibition result is recorded as “No inhibition” in [1]; “no inhibition” in [1] (listed as bakuchiol); “No inhibition” in data set [3]; “no inhibition” in [3] (listed as bakuchiol); “No inhibition” in [5]; “no inhibition” in data set [5] (listed as bakuchiol). This molecule showed a log partition coefficient (logP) in [2] of 6.13. The pIC50 was 4.68 in data set [4], 5.63 in data set [7] and 5.47 in [8]. For the same molecule, in [6], the “concentration of moderate inhibition” value amounted to 30 µg/mL. For the same molecule, in [9] (setting [13]), the average weight result is listed as “continued to increase”. Further, the food/water consumption entry in data set [9] (setting [13]) is given as “remained the same”. The “significant difference in behavior versus control mice” value in data set [9] (setting [13]) was “Aggression towards the investigator (i.e. biting) and towards each other (i.e. fighting in cage)”. The “adverse effects, fourteen-day study” value in data set [9] (setting [14]) is “No adverse effects”; in data set [9] (both purity levels (20% and 99% purity), approximately 2 g/kg per day) it was “No adverse effects”. For the same molecule, in [9] (setting [14]), the “toxicity in major organs tested” value is “no toxicity”. Further, the blood work result in [9] (setting [15]) is recorded as “normal relative to the controls”. For the same molecule, in data set [9] (setting [15]), the necropsy entry is “no gross abnormalities or changes in any organ”. In addition, the “histopathology, kidney” value in data set [9] (setting [16]) was “significant changes were not present”. Further, the “histopathology, liver hepatocyte nuclei” value in [9] (setting [16]) was “within normal limits”. Moreover, the “minimum effective concentration (significant inhibition)” value in [10] and in [11] was 1 µg/mL in each case.

Take `CC(=O)Oc1ccccc1C(=O)O` [aspirin]: in [12], the “effectiveness against COX-1 versus COX-2” value is on record as “more than 150 times”.
